Measured values from article PMC2794939 (Biochemistry, 2009).

What follows are compounds tested on influenza virus A/M2-V27A/L38F.
Format: cell-based, Influenza A/Udorn/72 virus (recombinant mutant)
For `NC12CC3CC(CC(C3)C1)C2` [Amantadine, amantadine], the Plaque count was 82 plaques/well and the “effect on plaque formation (count and size)” value (“effect on plaque formation” below) was “failed to inhibit plaque formation”.
`C1CCC2(CC1)CCN(C1=NCCN1)CC2` [BL-1743, 2-[3-azaspiro([5],[5])undecanol]-2-imidazoline] was tested, and the Plaque count was 86 plaques/well and the “effect on plaque formation” value was “failed to inhibit plaque formation”.
`NC1CCC2(CCCCC2)CC1` [Compound 8, spiro[5.5]undecan-3-amine] was tested, and the Plaque count was 37 plaques/well and the “effect on plaque formation” value was “reduced”.
